{
  "source": "paper PMC3898116",
  "about": "“FGT-1 is the major glucose transporter in C. elegans and is central to aging pathways” (Biochemical Journal, 2013)",
  "molecular_target": "T1, hGLUT1 (Homo sapiens, UniProt P11166)",
  "T1 construct": "gene SLC2A1; untagged, expressed in Xenopus laevis oocytes from cRNA",
  "T1 sequence (P11166 1-492)": "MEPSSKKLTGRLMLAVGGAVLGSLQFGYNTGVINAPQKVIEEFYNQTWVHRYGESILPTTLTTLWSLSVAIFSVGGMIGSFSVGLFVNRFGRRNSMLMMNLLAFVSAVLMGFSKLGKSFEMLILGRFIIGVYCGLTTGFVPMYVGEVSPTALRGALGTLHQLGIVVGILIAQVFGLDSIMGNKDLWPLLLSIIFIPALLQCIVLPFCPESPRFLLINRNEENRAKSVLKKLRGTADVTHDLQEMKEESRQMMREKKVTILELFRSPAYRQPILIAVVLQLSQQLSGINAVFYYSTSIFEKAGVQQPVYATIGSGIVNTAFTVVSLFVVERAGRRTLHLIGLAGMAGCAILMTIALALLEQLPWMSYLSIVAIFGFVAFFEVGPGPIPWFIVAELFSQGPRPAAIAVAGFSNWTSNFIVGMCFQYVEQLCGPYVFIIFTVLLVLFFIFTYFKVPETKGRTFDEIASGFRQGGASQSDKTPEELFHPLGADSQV",
  "test": "[…]glucose uptake in Xenopus oocytes",
  "assay_type": "cell-based",
  "settings": "incomplete ND96 buffer, 60 min uptake; labelled compound",
  "data": [
    {"smiles": "OC[C@H]1OC(O)[C@H](O)[C@@H](O)[C@@H]1O", "note": "(stereo partly drawn) [D-glucose]", "values": [
      {"measurement": "[14C]glucose uptake in Xenopus oocytes", "result": "These proteins transport glucose at levels that are comparable with GLUT1 expressed in the same system"}
    ]}
  ]
}
